{"source": "patent US5188642A", "about": "“Glyphosate-resistant plants” (priority 1990, dated 1993)", "key": {"[1]": {"system": "leaf tissue from transgenic shoots of B. napus", "test": "Oil seed rape leaf tissue tolerance test on medium with glyphosate", "type": "cell-based, Brassica napus", "conditions": "0.5 mM glyphosate", "method": "The four terminal intervals from B. napus plants (growth chamber grown in soil) are surface sterilized in sodium hypochlorite and cut into 5 mm sections. The upper surface of each piece is inoculated with an overnight liquid culture of A. tumefaciens containing the above described transformation vector and helper plasmid pTiT37-SE and incubated for 2 to 3 days on nurse culture plates containing 1/10 MS medium with 1 mg/l BA. The explants are then transferred to MS medium containing 1 mg/l BA, 500 mg/l carbenicillin and 100 mg/l kanamycin. After 3 to 6 weeks, leaf tissue from transgenic shoots that have developed is transferred to the same medium but with 0.5 mM glyphosate instead of the kanamycin to test for tolerance.\nControl tissue is prepared using A. tumefaciens cells containing helper plasmid pTiT37-SE and vector pMON200."}, "flax callus": {"system": "flax callus", "test": "Flax callus resistance to glyphosate", "type": "cell-based", "conditions": "glyphosate between 5.0 and 20.0 mM", "method": "Flax seeds are surface-sterilized with 70% ethanol, 25% Chlorox and rinsed with sterile distilled water. The seeds are placed on solid MS medium and allowed to germinate in the light for 5-7 days. The hypocotyls are removed aseptically and inoculated with A. tumefaciens cells containing the above-described transformation vector and helper plasmid pTiB6S3-SE or pTiT37-SE and permitted to co-culture for 2 days on MS medium containing 1 mg/l benzylaminopurine, 0.02 mg/l naphthalene acetic acid and 4% sucrose. The hypocotyls are then placed on MS medium supplemented with 400 mg/l kanamycin and 500 mg/l carbenicillin.\nControl tissue is prepared using A. tumefaciens cells containing helper plasmid pTiB6S3-SE or pTiT37-SE and vector pMON200."}, "petunia leaf disks": {"system": "petunia leaf disks", "test": "Callus growth from petunia leaf disks on MS media with glyphosate", "type": "cell-based", "method": "Leaf disks with diameters of 6 mm (1/4 inch) were taken from surface-sterilized petunia leaves. They were cultivated on MS104 agar medium for 2 days to promote partial cell wall formation at the wound surfaces. They were then submerged in a culture of A. tumefaciens cells containing both pMON546 and GV3111-SE which had been grown overnight in Luria broth at 28° C., and shaken gently. The cells were removed from the bacterial suspension, blotted dry, and incubated upside down on filter paper placed over \"nurse\" cultures of tobacco cells, as described in Horsch 1981. Afer 2 or 3 days, the disks were transferred to petri dishes containing MS media with 500 μg/ml carbenicillin and 0, 0.1, 0.25, or 0.5 mM glyphosate (sodium salt), with no nurse cultures.\nControl tissue was created using A. tumefaciens cells containing the helper plasmid pGV3111-SE and a different plant transformation vector, pMON505, which contained a T-DNA region with a NOS/NPTII/NOS kanamycin resistance gene and a NOS selectable marker gene identical to pMON546, but without the CaMV/EPSPS gene.\nWithin 10 days after transfer to the media containing glyphosate, actively growing callus tissue appeared on the periphery of all disks on the control plate containing no glyphosate. […] This confirms that the CaMV/EPSPS gene conferred glyphosate resistance upon the transformed cells."}, "petunia plants": {"system": "petunia plants", "test": "Plant response to glyphosate spraying (petunia plants, track sprayer)", "type": "in vivo", "conditions": "isopropylamine salt with ionic surfactant", "method": "Four individual representative transgenic seedlings were selected, grown and tested in the testing procedure described below, along with four individual non-transformed (wild-type) petunia seedlings.\nThe plants were grown in a growth medium in a growth chamber at 26° C. with 12 hours of light per day. The plants were fertilized weekly with a soluble fertilizer and watered as needed. The plants were sprayed at a uniform and reproducible delivery rate herbicide by use of an automated track sprayer.\nThe glyphosate solution used was measured as pounds of glyphosate acid equivalents per acre, mixed as the glyphosate isopropylamine salt, with an ionic surfactant.\nFour individual wild-type (non-transformed) petunia plants were selected for use as control plants. Four individual transformed plants containing the pMON546 vector were selected by kanamycin resistance as described in Horsch et al 1985.\nThe control plants and the transformed plants were sprayed with the isopropylamine salt of glyphosate at the application level listed in Table 2 below; the experimental results obtained are also summarized in Table 2."}, "soybean callus": {"system": "soybean callus", "test": "Soybean callus growth on MS medium with glyphosate", "type": "cell-based, Glycine canescens", "method": "Sterile hypocotyl pieces of Glycine canescens, a type of soybean, were infected with the A. tumefaciens strain containing the chimeric EPSPS gene as described in Example 2. Nurse culture plates were made which contained a medium of 10% of the normal level of MS salts (GIBCO), B5 vitamins, 3 g/l sucrose, 2 mg/l napthalene acetic acid, 1 mg/l benzyladenine, and 0.5 mM arginine. The pH was adjusted to 5.7 before autoclaving.\nThe infected soybean hypocotyls were incubated at 26° C. for two days and transferred to a similar medium (except that the MS salts were not diluted) and additionally containing 500 mg/l carbenicillin, 100 mg/l cefotaxime and 100 mg/l kanamycin. Under these conditions, only transformed soybean callus was able to grow.\nControl tissue was produced using A. tumefaciens cells containing the helper Ti plasmid pTiT37-SE and a plant transformation vector pMON200. See Fraley et al, Biotechnology Vol. 3, 1985, described herein. The co-integrate pTiT37-SE contained a T-DNA region with a NOS/NPTII/NOS kanamycin resistance gene and a NOS scorable marker gene identical to pMON200, but without the CaMV 35S/EPSPS/NOS gene.\nAfter 14-17 days, soybean callus transformed with either the vector alone (pMON200 plasmid) or with the vector containing a chimeric EPSPS gene was transferred to petri dishes containing MS medium and 0, 0.5 mM or 1.0 mM glyphosate.\nWithin 18-20 days after transfer to the media containing glyphosate, actively growing callus tissue appeared in all dishes containing no glyphosate."}, "sunflower plants": {"system": "sunflower plants", "test": "Sunflower plants sprayed with glyphosate", "type": "in vivo"}}}
{"smiles": "O=C(O)CNCP(=O)(O)O", "note": "[glyphosate, N-phosphonomethylglycine]", "values": [{"measurement": "tissue growth", "setting": "[1]; transformed (pMON200) and non-transformed controls", "value": "are inhibited"}, {"measurement": "tissue growth", "setting": "[1]; transgenic tissue that expresses EPSPS", "value": "are able to grow in the presence of glyphosate"}, {"measurement": "tissue response", "setting": "flax callus; control tissue (pMON200)", "value": "bleaches and dies"}, {"measurement": "callus resistance", "setting": "flax callus; selected callus transformed with EPSPS vector", "value": "demonstrates resistance to glyphosate"}, {"measurement": "callus growth, control disks versus transformed tissue", "setting": "petunia leaf disks; 0.1 mM glyphosate (sodium salt), within 10 days, control pMON505, transformed pMON546", "value": "little detectable difference between the control disks and the transformed tissue"}, {"measurement": "callus growth", "setting": "petunia leaf disks; control disks (pMON505), 0.25 mM glyphosate (sodium salt)", "value": "very little growth of callus from control disks"}, {"measurement": "callus growth", "setting": "petunia leaf disks; control disks (pMON505), 0.5 mM glyphosate (sodium salt)", "value": "no callus growth from the control disks"}, {"measurement": "callus growth", "setting": "petunia leaf disks; transformed disks (pMON546, CaMV/EPSPS), 0.5 mM glyphosate (sodium salt)", "value": "a significant number of calli grew from the transformed disks"}, {"measurement": "callus growth", "setting": "petunia leaf disks; transformed tissue (pMON546, CaMV/EPSPS), 0.25 mM glyphosate (sodium salt)", "value": "substantial growth of transformed tissue occurred"}, {"measurement": "Visual Appearance", "setting": "petunia plants; Chimeric EPSPS transformants (pMON546), 0.8 #/acre acid equivalent", "value": "healthy and viable"}, {"measurement": "Visual Appearance", "setting": "petunia plants; Control (wild-type) petunia plants, 0.4 #/acre acid equivalent", "value": "killed"}, {"measurement": "callus growth", "setting": "soybean callus; callus colonies containing the chimeric EPSPS gene, 0.5 mM glyphosate, 18-20 days", "value": "showed definite growth"}, {"measurement": "callus growth", "setting": "soybean callus; control callus (pMON200 vector alone), 0.5 mM glyphosate, 18-20 days", "value": "little growth in the dishes containing control callus"}, {"measurement": "callus growth", "setting": "soybean callus; control tissues (pMON200), 1.0 mM glyphosate", "value": "no callus growth from the control tissues"}, {"measurement": "callus growth", "setting": "soybean callus; transformed callus containing the chimeric EPSPS gene, 1.0 mM glyphosate", "value": "some growth of the transformed callus"}, {"measurement": "plant tolerance to spray", "setting": "sunflower plants; transformed sunflower plants", "value": "demonstrate tolerance to glyphosate"}, {"measurement": "plant response to spray", "setting": "sunflower plants; wild type sunflower plants", "value": "kill wild type plants"}]}
